Reference: patent US12491252B2, “Substituted 3-amino-5-phenylbenzamide compounds as covalent inhibitors of enhancer zeste homolog 2 (EZH2) and proteolysis-targeting chimeric derivatives thereof (PROTACs) that induce degradation of EZH2” (Northwestern University, priority 2021, dated 2025)

Columns and labels:
[1] = tested on: LNCaP cells; experiment: Colony assay using LnCaP cells; format: cell-based; conditions: FIG. 17B, treatment for 7 days
Description: (§1) FIG. 17A-17B. (FIG. 17A) Live imaging cell proliferation of LNCaP cells. Cells were treated with indicated compounds and monitored over 168 hours for proliferation by phase object confluence. DMSO is set as the negative control. […] (FIG. 17B) Colony assays using LnCaP cells after treatment with the indicated compounds for 7 days.

[2] = tested on: SUZ12; experiment: Western blot of SUZ12 in C4-2B cells; format: cell-based; conditions: FIG. 14, 10 μM for 6 days
[3] = target: T1, EZH2 (Homo sapiens, UniProt Q15910); experiment: Western blot of EZH2 protein in PC3 cells; conditions: FIG. 26, 6 days treatment
From the text: (Upper right western blot) Western blot analysis of EZH2 protein in PC3 cells after 6 days treatment.

[4] = tested on: C4-2B cells; experiment: Imaging of C4-2B cells (cell density); format: cell-based; conditions: FIG. 21, 12 days' treatment
From the text: FIG. 21. Imaging of C4-2B cells after 12 days' treatment with the indicated compounds.

[5] = tested on: LNCaP cells; experiment: WST cell proliferation/viability assay in LNCaP cells; format: cell-based; conditions: FIG. 19A; LNCaP; 6 days
Description: FIG. 19A-19B. (FIG. 19A) WST cell proliferation assay of indicated compounds in LNCaP cells. […] (FIG. 19B) Effects of indicated compounds on EZH2, AR, and FOXA1 by western blot at 1 μM in LNCaP cells.
(§2) Cell proliferation was measured using WST-1 Kit (Clontech) according to manufacturer's protocol.

[6] = tested on: C4-2B cells; experiment: Colony assay using C4-2B cells; format: cell-based; conditions: FIG. 20B, treatment for 7 days
Description: as §1, with “20A-20B.” for “17A-17B.”, “20A)” for “17A)”, “C4-2B” for “LNCaP”, “20B)” for “17B)”, “C4-2B” for “LnCaP”

[7] = tested on: H3K27me3; experiment: Western blot of H3K27me3 levels in C4-2B cells; format: cell-based; conditions: FIG. 14, 10 μM for 6 days
[8] = Pharmacokinetics in mice, IP cassette dosing, plasma LC/MS/MS; format: in vivo, C57Bl/6 mouse; conditions: mouse, C57Bl/6 mice, 4 mg/kg IP, cassette format
Description: FIG. 35. Pharmacokinetics of indicated compounds. Compounds were administered to C57Bl/6 mouse mice at 4 mg/kg using intraperitoneal (IP) injection in cassette format. Plasma was collected at the indicated time points and analyzed by LC/MS/MS using standard methods.
For assessing pharmacokinetics, compounds were administered to C57Bl/6 mouse mice at 4 mg/kg using intraperitoneal (IP) injection in cassette format. Plasma was collected at the indicated time points and analyzed by LC/MS/MS using standard methods.

[9] = target: T1, EZH2; experiment: Western blot of EZH2 protein in C4-2B cells; conditions: FIG. 14, 10 μM for 6 days
[10] = tested on: C4-2B cells; experiment: Live imaging cell proliferation of C4-2B cells; format: cell-based; conditions: FIG. 20A, monitored over 168 hours
From the text: FIG. 20A-20B. (FIG. 20A) Live imaging cell proliferation of C4-2B cells. […] DMSO is set as the negative control. […] (FIG. 20B) Colony assays using C4-2B cells after treatment with the indicated compounds for 7 days.

[11] = tested on: C4-2B cells; experiment: WST cell proliferation assay in C4-2B cells; format: cell-based; conditions: FIG. 22, 6 days
Description: FIG. 22A-22B. WST cell proliferation assay of indicated compounds in C4-2B cells. Cells were treated for 6 days. […] (FIG. 19B) Effects of indicated compounds on EZH2, AR, and FOXA1 by western blot at 1 μM in C4-2B cells.
as §2

[12] = tested on: LNCaP cells; experiment: Imaging of LnCaP cells (cell density); format: cell-based; conditions: FIG. 18, 12 days' treatment
From the text: FIG. 18. Imaging of LnCaP cells after 12 days' treatment with the indicated compounds.

[13] = target: T1, EZH2; experiment: Western blot of EZH2 protein in DU-145 cells; conditions: FIG. 27, 6 days treatment
From the text: (Upper right western blot) Western blot analysis of EZH2 protein in DU-145 cells after 6 days treatment.

[14] = tested on: LNCaP cells; experiment: Live imaging cell proliferation of LNCaP cells; format: cell-based; conditions: FIG. 17A, monitored over 168 hours
From the text: FIG. 17A-17B. (FIG. 17A) Live imaging cell proliferation of LNCaP cells. […] DMSO is set as the negative control. […] (FIG. 17B) Colony assays using LnCaP cells after treatment with the indicated compounds for 7 days.

[15] = tested on: SU-DHL6 cells; experiment: WST cell viability assay in SU-DHL6 cells; format: cell-based; conditions: Table 7; WST1 with higher dose on SU-DHL6
Description: as §2

[16] = tested on: SUZ12; experiment: Western blot of SUZ12 in SU-DHL4 cells; format: cell-based; conditions: FIG. 33, 48 hours
Description: (§3) FIG. 33. […] Cell were treated for 48 hours with the indicated concentrations of compounds.

[17] = tested on: SU-DHL4 cells; experiment: WST cell viability assay in SU-DHL4 cells; format: cell-based
Description: as §2

[18] = tested on: EED; experiment: Western blot of EED in SU-DHL6 cells; format: cell-based; conditions: FIG. 33, 48 hours
Description: as §3

[19] = tested on: EED; experiment: Western blot of EED in SU-DHL4 cells; format: cell-based; conditions: FIG. 33, 48 hours
Description: as §3

[20] = tested on: SUZ12; experiment: Western blot of SUZ12 in SU-DHL6 cells; format: cell-based; conditions: FIG. 33, 48 hours
Description: as §3

T1 sequence (Q15910 whole entry): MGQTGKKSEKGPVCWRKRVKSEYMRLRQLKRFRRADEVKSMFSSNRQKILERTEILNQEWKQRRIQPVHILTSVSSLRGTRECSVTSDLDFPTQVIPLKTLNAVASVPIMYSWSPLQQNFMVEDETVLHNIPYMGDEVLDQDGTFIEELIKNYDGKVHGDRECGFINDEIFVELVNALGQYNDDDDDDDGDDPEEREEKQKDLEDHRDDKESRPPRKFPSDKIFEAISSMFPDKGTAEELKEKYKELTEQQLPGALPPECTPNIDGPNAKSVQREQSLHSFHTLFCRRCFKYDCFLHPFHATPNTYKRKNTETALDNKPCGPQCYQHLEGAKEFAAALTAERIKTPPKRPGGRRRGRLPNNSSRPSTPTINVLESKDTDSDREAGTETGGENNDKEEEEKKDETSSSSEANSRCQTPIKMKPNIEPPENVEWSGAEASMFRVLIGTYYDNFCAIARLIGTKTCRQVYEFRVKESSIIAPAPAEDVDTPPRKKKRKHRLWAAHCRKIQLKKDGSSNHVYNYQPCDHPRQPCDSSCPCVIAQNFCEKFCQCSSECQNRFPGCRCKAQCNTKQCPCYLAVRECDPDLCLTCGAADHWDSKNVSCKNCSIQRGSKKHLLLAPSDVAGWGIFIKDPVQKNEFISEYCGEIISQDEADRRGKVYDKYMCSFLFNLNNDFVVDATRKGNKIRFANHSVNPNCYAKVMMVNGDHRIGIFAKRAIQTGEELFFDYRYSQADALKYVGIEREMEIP
T1 sequence (Q15022 whole entry partner): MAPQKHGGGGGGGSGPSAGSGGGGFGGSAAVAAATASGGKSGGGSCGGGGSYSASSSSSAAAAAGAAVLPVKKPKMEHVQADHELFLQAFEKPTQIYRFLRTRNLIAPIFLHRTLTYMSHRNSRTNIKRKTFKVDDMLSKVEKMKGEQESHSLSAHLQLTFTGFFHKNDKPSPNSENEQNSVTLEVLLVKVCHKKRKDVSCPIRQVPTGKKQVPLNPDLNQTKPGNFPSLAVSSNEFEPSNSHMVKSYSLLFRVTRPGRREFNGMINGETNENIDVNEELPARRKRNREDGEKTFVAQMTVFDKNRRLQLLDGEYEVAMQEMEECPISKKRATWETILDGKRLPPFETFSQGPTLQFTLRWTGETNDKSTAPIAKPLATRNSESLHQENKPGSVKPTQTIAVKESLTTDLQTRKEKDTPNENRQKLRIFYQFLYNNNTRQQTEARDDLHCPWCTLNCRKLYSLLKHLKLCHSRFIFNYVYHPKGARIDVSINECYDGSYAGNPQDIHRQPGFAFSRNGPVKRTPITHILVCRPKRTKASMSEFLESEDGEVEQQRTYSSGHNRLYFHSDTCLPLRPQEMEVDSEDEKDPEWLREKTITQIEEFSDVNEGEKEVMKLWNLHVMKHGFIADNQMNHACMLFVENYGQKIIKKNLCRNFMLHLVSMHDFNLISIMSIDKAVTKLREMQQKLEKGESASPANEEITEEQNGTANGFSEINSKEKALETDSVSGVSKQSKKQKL
T1 sequence (O75530 whole entry partner): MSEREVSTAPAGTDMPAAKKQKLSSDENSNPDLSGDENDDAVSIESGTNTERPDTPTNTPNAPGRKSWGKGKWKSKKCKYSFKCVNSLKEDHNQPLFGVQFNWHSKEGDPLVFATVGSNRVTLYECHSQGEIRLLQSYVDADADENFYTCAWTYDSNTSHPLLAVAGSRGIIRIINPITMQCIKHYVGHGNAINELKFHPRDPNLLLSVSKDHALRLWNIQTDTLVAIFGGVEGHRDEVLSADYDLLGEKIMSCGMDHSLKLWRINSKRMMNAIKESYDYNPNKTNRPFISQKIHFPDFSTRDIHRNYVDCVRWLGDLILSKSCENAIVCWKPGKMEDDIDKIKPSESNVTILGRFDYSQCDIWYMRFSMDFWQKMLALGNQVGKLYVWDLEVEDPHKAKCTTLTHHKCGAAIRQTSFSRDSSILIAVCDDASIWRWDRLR

With `CCN(c1cc(-c2ccc(CN3CCN(CCCCCCCCCCCC(=O)N[C@H](C(=O)N4C[C@H](O)C[C@H]4C(=O)NCc4ccc(-c5scnc5C)cc4)C(C)(C)C)CC3)cc2)cc(C(=O)NCc2c(C)cc(C)[nH]c2=O)c1C)C1CCOCC1` [Compound 6287] the Colonies [1] was “significant reduction in the colonies”, the “Reduction of PRC2 component SUZ12” value [2] was “reduction of PRC2 component SUZ12” and the “EZH2 protein (western blot)” value [3] was “significant reduction in EZH2”. For the same compound, the “Cell density by imaging” value [4] was “significant reduction in the cell density”, the “Inhibition of proliferation (WST)” value [5] was “similarly potent effects on inhibiting the proliferation” and the Colonies [6] was “significant reduction in the colonies”. The H3K27me3 levels [7] was “reduced H3K27me3 levels”, the Cmax [8] was 487 nM and the half-life [8] was 6.5 h. For the same compound, the “Degradation of EZH2” value [9] was “strong degradation of EZH2”, the “Cell proliferation by phase object confluence” value [10] was “decrease C4-2B proliferation” and the “Inhibition of proliferation (WST)” value [11] was “similarly potent effects on inhibiting the proliferation”. The “Cell density by imaging” value [12] was “significant reduction in the cell density”, the “EZH2 protein (western blot)” value [13] was “significant reduction in EZH2” and the “Cell proliferation by phase object confluence” value [14] was “greatest ability to decrease LnCaP proliferation”.
In the case of `CCN(c1cc(-c2ccc(CN3CCOCC3)cc2)cc(C(=O)NCc2c(C)cc(C)[nH]c2=O)c1C)C1CCOCC1` [EPZ-6438, reference compound], the Colonies [1] is reported as “reduction in colonies versus DMSO negative control”, the “HillSlope (best-fit value)” value [15] is reported as −0.03015 and the “logIC50 (best-fit value)” value [15] is reported as “Unstable”. For the same compound, the Colonies [6] was “reduction in colonies versus DMSO negative control”, the “Degradation of SUZ12” value [16] was “little or no effect” and the “HillSlope (best-fit value)” value ([17]; Table 6, WST1 with higher dose on SU-DHL4) was 0.005835. The “HillSlope (best-fit value)” value ([17]; Table 8, WST1 within 1 μM on SU-DHL4) was −0.1692, the “HillSlope (best-fit value)” value ([17]; Table 9, WST1 within 1 μM on SU-DHL4 (as titled)) was −0.4432 and the “Degradation of EED” value [18] was “little or no effect”. For the same compound, the “Degradation of EED” value [19] was “little or no effect” and the “Degradation of SUZ12” value [20] was “little or no effect”.
